This is an account of results in EP0232017A1 (priority 1986, dated 1987).

The assay has as its system anaerobes and Gram positive aerobes. It is filed as cell-based. As to conditions: dipped-disc Biospectrum assay at 1 mg/ml; result in words, zone sizes only in image Tables XIII-XV.
Take `CC(=O)N1CC(C(C)C)C1=O` (racemic) [2-azetidinone, 1-acetyl-3-(1-methylethyl)-, (±)-]: the “activity vs. anaerobes and Gram positive aerobes” value is reported as “high activity”. To `CCCCCCCC(=O)N1CC(C(C)C)C1=O` (racemic) [2-azetidinone, 3-(1-methlethyl)-1-(oxooctyl)-, (±)-] belongs “high activity”.

Regarding `CCCCC(=O)N1CC(C(C)C)C1=O` (racemic) [2-azetidinone, 3-(1-methylethyl)-1-(1-oxopentyl)-, (±)-], the “activity vs. anaerobes and Gram positive aerobes” value is listed as “high activity”.

Turning to `CCCCCC(=O)N1C(=O)[C@@H]2CCCC[C@@H]21` (relative stereo) [Example 94, N-Hexanoyl-cis-3,4-tetramethylene-2-azetidinone], the “activity vs. anaerobes and Gram positive aerobes” value is reported as “high activity”. To `CCCC(=O)N1CC(C(C)C)C1=O` (stereo not drawn) [2-azetidinone, 3-(1-methylethyl)-1-(1-oxobutyl)-] belongs “high activity”; to `CCCCCC(=O)N1CC(C(C)C)C1=O` (stereo not drawn) [2-azetidinone, 3-(1-methylethyl)-1-(1-oxohexyl)-], “high activity”.
